# Results reported in paper PMC7463651, “Phase I/Ib Study of Tenalisib (RP6530), a Dual PI3K δ/γ Inhibitor in Patients with Relapsed/Refractory T-Cell Lymphoma” (Cancers, 2020).
# Entries after “also recorded” stand apart in the source; their conditions may differ.
# Tested on: patients with relapsed/refractory T Cell Lymphoma
# Assay: Safety assessment (adverse events per CTCAE v4.03, DLT/MTD) in phase I/Ib study
# Format: in vivo, human
# Protocol: Protocol defined hematological or non-hematological toxicity was considered dose-limiting if it occurred during the first cycle (within the first 28 d) and was considered related to Tenalisib. Hematological DLTs was defined as Grade 4 anemia; Grade 4 neutropenia for >7 days, or Grade ≥3 febrile neutropenia with fever >38.5 °C [101 °F]; Grade 4 thrombocytopenia for >7 days, or Grade ≥3 thrombocytopenia associated with Grade >2 bleeding.
# Safety assessment included adverse event (AE) and serious adverse events (SAE) as per Common Terminology Criteria for Adverse Events (CTCAE), Version 4.03. During dose escalation, safety assessments were performed at weekly intervals during Cycle 1 and Cycle 2 and at two weekly intervals during Cycle 3 and 4. After completion of Cycle 4, safety assessments were performed on Day 1 of each subsequent cycle. In dose expansion phase, all safety assessments were performed on Day 1 of each cycle.
# [1] = Relationship-Related, Dose Escalation (N = 19)
# [2] = Relationship-Related, Dose Expansion (N = 39)
# [3] = Relationship-Related, Total (N = 58)
# [4] = Relationship-all, Dose Escalation (N = 19)
# [5] = Relationship-all, Dose Expansion (N = 39)
smiles,measurement,setting,value
CC[C@H](Nc1ncnc2[nH]cnc12)c1oc2ccccc2c(=O)c1-c1cccc(F)c1 [Tenalisib],Maximum tolerated dose (MTD),"BID, fasting",800 mg
same,Number of related AEs,CTCL patients,208
same,Number of related ≥Grade 3 AEs,CTCL patients,25
same,Patients with related AEs,CTCL patients,27 (90%) n (%)
same,Patients with related ≥Grade 3 AEs,CTCL patients,12 (40%) n (%)
same,Dose-limiting toxicities (DLT),"Cohort 4, 800 mg BID (fed)",Two dose-limiting toxicities; also recorded: Two DLTs (Grade 3 ALT increased and Grade 3 erythematous rash)
same,Number of related AEs,PTCL patients,51
same,Neutropenia: patients with event,[1],2 (10.5%) n (%)
same,Pruritus: count of events,[1],1
same,Pruritus: patients with event,[1],1 (5.3%) n (%)
same,Pyrexia: patients with event,[1],0 n (%)
same,Vomiting: count of events,[1],3
same,Vomiting: patients with event,[1],2 (10.5%) n (%)
same,Alanine aminotransferase increased: count of events,[2],18
same,Alanine aminotransferase increased: patients with event,[2],12 (30.8%) n (%)
same,Anemia: count of events,[2],2
same,Anemia: patients with event,[2],2 (5.1%) n (%)
same,Aspartate aminotransferase increased: count of events,[2],20
same,Aspartate aminotransferase increased: patients with event,[2],12 (30.8%) n (%)
same,Blood alkaline phosphatase increased: count of events,[2],2
same,Blood alkaline phosphatase increased: patients with event,[2],2 (5.1%) n (%)
same,Blood thyroid stimulating hormone increased: count of events,[2],3
same,Blood thyroid stimulating hormone increased: patients with event,[2],2 (5.1%) n (%)
same,Dehydration: count of events,[2],3
same,Dehydration: patients with event,[2],3 (7.7%) n (%)
same,Diarrhea: count of events,[2],10
same,Diarrhea: patients with event,[2],9 (23.1%) n (%)
same,Dizziness: count of events,[2],3
same,Dizziness: patients with event,[2],3 (7.7%) n (%)
same,Dyspepsia: count of events,[2],2
same,Dyspepsia: patients with event,[2],2 (5.1%) n (%)
same,Erythema: count of events,[2],2
same,Erythema: patients with event,[2],2 (5.1%) n (%)
same,Fatigue: count of events,[2],7
same,Fatigue: patients with event,[2],7 (17.9%) n (%)
same,Gamma-glutamyltransferase increased: count of events,[2],7
same,Gamma-glutamyltransferase increased: patients with event,[2],5 (12.8%) n (%)
same,Headache: count of events,[2],2
same,Headache: patients with event,[2],2 (5.1%) n (%)
same,Muscle spasms: count of events,[2],3
same,Muscle spasms: patients with event,[2],3 (7.7%) n (%)
same,Nausea: count of events,[2],2
same,Nausea: patients with event,[2],2 (5.1%) n (%)
same,Neutropenia: count of events,[2],1
same,Neutropenia: patients with event,[2],1 (2.6%) n (%)
same,Pruritus: count of events,[2],3
same,Pruritus: patients with event,[2],3 (7.7%) n (%)
same,Pyrexia: count of events,[2],5
same,Pyrexia: patients with event,[2],3 (7.7%) n (%)
same,Vomiting: count of events,[2],1
same,Vomiting: patients with event,[2],1 (2.6%) n (%)
same,Alanine aminotransferase increased: count of events,[3],31
same,Alanine aminotransferase increased: patients with event,[3],18 (31.0%) n (%)
same,Anemia: count of events,[3],3
same,Anemia: patients with event,[3],3 (5.2%) n (%)
same,Aspartate aminotransferase increased: count of events,[3],35
same,Aspartate aminotransferase increased: patients with event,[3],18 (31.0%) n (%)
same,Blood alkaline phosphatase increased: count of events,[3],3
same,Blood alkaline phosphatase increased: patients with event,[3],3 (5.2%) n (%)
same,Blood thyroid stimulating hormone increased: count of events,[3],5
same,Blood thyroid stimulating hormone increased: patients with event,[3],4 (6.9%) n (%)
same,Dehydration: count of events,[3],4
same,Dehydration: patients with event,[3],4 (6.9%) n (%)
same,Diarrhea: count of events,[3],14
same,Diarrhea: patients with event,[3],12 (20.7%) n (%)
same,Dizziness: count of events,[3],5
same,Dizziness: patients with event,[3],5 (8.6%) n (%)
same,Dyspepsia: count of events,[3],3
same,Dyspepsia: patients with event,[3],3 (5.2%) n (%)
same,Erythema: count of events,[3],3
same,Erythema: patients with event,[3],3 (5.2%) n (%)
same,Fatigue: count of events,[3],9
same,Fatigue: patients with event,[3],9 (15.5%) n (%)
same,Gamma-glutamyltransferase increased: count of events,[3],9
same,Gamma-glutamyltransferase increased: patients with event,[3],7 (12.1%) n (%)
same,Headache: count of events,[3],6
same,Headache: patients with event,[3],5 (8.6%) n (%)
same,Muscle spasms: count of events,[3],6
same,Muscle spasms: patients with event,[3],5 (8.6%) n (%)
same,Nausea: count of events,[3],4
same,Nausea: patients with event,[3],3 (5.2%) n (%)
same,Neutropenia: count of events,[3],3
same,Neutropenia: patients with event,[3],3 (5.2%) n (%)
same,Pruritus: count of events,[3],4
same,Pruritus: patients with event,[3],4 (6.9%) n (%)
same,Pyrexia: count of events,[3],5
same,Pyrexia: patients with event,[3],3 (5.2%) n (%)
same,Vomiting: count of events,[3],4
same,Vomiting: patients with event,[3],3 (5.2%) n (%)
same,Grade 3/4 Alanine aminotransferase increased: count of events,Relationship-all,5
same,Grade 3/4 Alanine aminotransferase increased: patients with event,Relationship-all,5 (26.3%) n (%)
same,Grade 3/4 Anemia: count of events,Relationship-all,2
same,Grade 3/4 Anemia: patients with event,Relationship-all,2 (10.5%) n (%)
same,Grade 3/4 Aspartate aminotransferase increased: count of events,Relationship-all,4
same,Grade 3/4 Aspartate aminotransferase increased: patients with event,Relationship-all,4 (21.1%) n (%)
same,Grade 3/4 Fatigue: count of events,Relationship-all,1
same,Grade 3/4 Fatigue: patients with event,Relationship-all,1 (5.3%) n (%)
same,Grade 3/4 Hyponatremia: count of events,Relationship-all,2
same,Grade 3/4 Hyponatremia: patients with event,Relationship-all,2 (10.5%) n (%)
same,Grade 3/4 Neutropenia: count of events,Relationship-all,2
same,Grade 3/4 Neutropenia: patients with event,Relationship-all,2 (10.5%) n (%)
same,Grade 3/4 Thrombocytopenia: count of events,Relationship-all,1
same,Grade 3/4 Thrombocytopenia: patients with event,Relationship-all,1 (5.3%) n (%)
same,Abdominal pain: count of events,[4],3
same,Abdominal pain: patients with event,[4],3 (15.8%) n (%)
same,Alanine aminotransferase increased: count of events,[4],13
same,Alanine aminotransferase increased: patients with event,[4],6 (31.6%) n (%)
same,Anemia: count of events,[4],6
same,Anemia: patients with event,[4],3 (15.8%) n (%)
same,Aspartate aminotransferase increased: count of events,[4],16
same,Aspartate aminotransferase increased: patients with event,[4],7 (36.8%) n (%)
same,Blood creatinine increased: count of events,[4],1
same,Vomiting: count of events,[4],5
same,Vomiting: patients with event,[4],4 (21.1%) n (%)
same,Abdominal pain: count of events,[5],6
same,Abdominal pain: patients with event,[5],5 (12.8%) n (%)
same,Alanine aminotransferase increased: count of events,[5],20
same,Alanine aminotransferase increased: patients with event,[5],14 (35.9%) n (%)
same,Anemia: count of events,[5],10
same,Anemia: patients with event,[5],6 (15.4%) n (%)
same,Aspartate aminotransferase increased: count of events,[5],21
same,Aspartate aminotransferase increased: patients with event,[5],14 (35.9%) n (%)
same,Blood creatinine increased: count of events,[5],6
same,Blood creatinine increased: patients with event,[5],6 (15.4%) n (%)
same,Blood thyroid stimulating hormone increased: count of events,[5],5
same,Blood thyroid stimulating hormone increased: patients with event,[5],4 (10.3%) n (%)
same,Constipation: count of events,[5],5
same,Constipation: patients with event,[5],5 (12.8%) n (%)
same,Cough: count of events,[5],9
same,Cough: patients with event,[5],7 (17.9%) n (%)
same,Decreased appetite: count of events,[5],8
same,Decreased appetite: patients with event,[5],7 (17.9%) n (%)
same,Dehydration: count of events,[5],13
same,Dehydration: patients with event,[5],10 (25.6%) n (%)
same,Diarrhea: count of events,[5],19
same,Diarrhea: patients with event,[5],14 (35.9%) n (%)
same,Dizziness: count of events,[5],9
same,Dizziness: patients with event,[5],7 (17.9%) n (%)
same,Dry skin: count of events,[5],6
same,Dry skin: patients with event,[5],5 (12.8%) n (%)
same,Dyspnea: count of events,[5],2
same,Dyspnea: patients with event,[5],2 (5.1%) n (%)
same,Fatigue: count of events,[5],19
same,Fatigue: patients with event,[5],18 (46.2%) n (%)
same,Gamma-glutamyl transferase increased: count of events,[5],9
same,Gamma-glutamyl transferase increased: patients with event,[5],6 (15.4%) n (%)
same,Headache: count of events,[5],9
same,Headache: patients with event,[5],7 (17.9%) n (%)
same,Hypokalemia: count of events,[5],5
same,Hypokalemia: patients with event,[5],3 (7.7%) n (%)
same,Hyponatremia: count of events,[5],5
same,Hyponatremia: patients with event,[5],4 (10.3%) n (%)
same,Insomnia: count of events,[5],4
same,Insomnia: patients with event,[5],3 (7.7%) n (%)
same,Muscle spasms: count of events,[5],4
same,Muscle spasms: patients with event,[5],4 (10.3%) n (%)
same,Nausea: count of events,[5],9
same,Nausea: patients with event,[5],9 (23.1%) n (%)
same,Pruritus: count of events,[5],5
same,Pruritus: patients with event,[5],5 (12.8%) n (%)
same,Psychiatric disorders: count of events,[5],12
same,Psychiatric disorders: patients with event,[5],7 (17.9%) n (%)
same,Pyrexia: count of events,[5],17
